Reference: patent US9371295B2, “Compounds for use in the treatment of disorders that are ameliorated by inhibition of HDAC” (IRBM—Science Park S.p.A., priority 2012, dated 2016)

Key:
[1] = target: T1, HDAC1 (Homo sapiens, UniProt Q13547); assay: HDAC1 assay (Fluor-de-Lys fluorescent deacetylase assay); assay type: biochemical; settings: read-out: hHDAC IC50
T1 construct: made in house
Experimental: The HDAC1 assay is used to quantify the histone deacetylase (HDAC) activity. The assay is performed in 384 well microtiter plates by pre-incubating serial dilutions of the compounds with a fixed concentration of HeLa nuclear extract or purified HDAC1 and then adding an acetylated lysine-containing substrate/developer that fluoresces upon deacetylation.
Reagents of the HDAC Fluorescent Activity Assay are purchased from BioMol Research Laboratories (Plymouth Meeting, Pa.) and feature the Fluor-de-Lys™ Substrate/Developer System.
TSA Stock: TSA is provided as a 10 mM stock solution in 100% dimethylsulfoxide (DMSO). […] The final concentration in the assay is 20 uM.
3 uM [final] TSA to this solution increases its ability to stop the reaction.
HDAC1 Working Solution: The HDAC1 enzyme is diluted in assay buffer prior to each use from a fresh aliquot of enzyme. The final concentration in the assay is 1-2 nM.
Compounds: Test compounds are directly transferred from a 100% DMSO solution into assay plates by spotting nanoliters of solutions by an acoustic dispenser (ATS-100, EDC biosystems, US).
HeLa cells transiently transfected with pCDNA3-HDAC1-FLAG are grown to 80% confluence on 10 cm culture dishes in DMEM, 10% Fetal bovine serum supplemented with antibiotics and glutamine. Cells are washed with 10 ml cold PBS and scraped into 2 ml of PBS. Cells are centrifuged for 5 minutes at 800×g at 4° C., washed with 30 ml PBS and resuspended in 10 ml PBS, counted, re-centrifuged and frozen at −80° C.
The frozen cell pellet is re-suspended in 1 ml of hypotonic lysis buffer (LB: 20 mM Hepes pH7.9, 0.25 mM EDTA, 10% glycerol) containing COMPLETE protease inhibitor and incubated on ice for 15 minutes, followed by homogenization on a 2-ml DounceB homogenizer (25 strokes). 150 mM KCl and 0.5% NP-40 are added to the homogenate and the solution is sonicated twice for 30 seconds (output5/6, duty cycle 90) and incubated for 1 hour at 4° C. After a 30 minutes centrifugation at 12000 rpm and 4° C. the supernatant (soluble extract) is collected and protein concentration is determined using the BIORAD assay.
Anti-FLAG M2 affinity resin (Sigma) is washed three times with TBS and twice with LB. 10 μl of the LB-washed resin/mg of protein (2-3 ug of Flagged-HDAC1) are added to the soluble extract (1 mL) and incubated overnight at 4° C. with gentle mixing. The resin is then collected by centrifugation, washed once with LB, twice with LB+0.1% NP40 and twice with elution buffer (50 mM Hepes pH 7.4, 5% glycerol, 100 mM KCl, 0.01% Triton X-100).
The concentration of purified HDAC is determined by Western blot analysis.

[2] = system: HDAC in Hela cells; assay: HDAC Hela Cell Based assay
[3] = system: human γ-globin promoter (EGFP reporter) in K562 cells; assay: HbF activation assay on K562 (EGFP/RFP reporter model system for screening of inducers of fetal hemoglobin); assay type: cell-based; settings: 60 hours
From the text: In order to test several compounds, a model system was produced based on previous findings present in the literature. The K562 erythroid-like cell lines, isolated and characterized by Lozzio & Lozzio (Blood, 45(3), pp 321-334) from a patient with chronic myelogenous leukemia in blast crisis, have been extensively employed as a useful in vitro model to study the molecular mechanism(s) regulating the expression of embryonic and fetal human globin genes, as well as for screening of new differentiation-inducing compounds. A stable cell line where reporter genes encoding green EGFP and far-red fluorescent protein red-FP are placed under the control of the human γ-globin or β-globin promoters respectively was used (see Vadolas et al, Hum. Mol. Genet. 2004, 13, 2, 223-233 for details). The modified 3-cluster also contains the upstream regulatory region called LCR. This cell line grows in suspension at 37° C. and 5% CO2 in humidified atmosphere in the following medium: DMEM, 10% foetal bovine serum, glutamine and antibiotics (penicillin and streptomycin);
The assay procedures is as follows: • Single concentration compounds or serially diluted samples are transferred to an empty assay plates by a spotter (ATS-100, EDC Biosystems, USA) in order to have a final concentration of DMSO of 0.25% in 50 μL of cell culture. Source plats contains compounds dissolved in 100% DMSO • Black, transparent bottom, 384 wells, tissue culture treated plates are used as assay plates. • Assay plates containing spotted compounds are filled with a suspension of cell in the described assay medium. The final cell concentration is of 1000 cells per well. • Cells are incubated in humidified atmosphere, 37° C.-5% CO2, for 60 hours • Cell nuclei are stained by adding 10 ul (6 μM; 1 μM final) Hoechst 33342 (Life Technologies, USA) • The cell associated intensity is read by a plate based cytometer (ACUMEN explorer, TTP Labtech, UK) • The nuclei count is used to assess the cell proliferation/death and to normalize the total EGFP/RFP intensity. HbF Activation Assay in Human Cell Line K562
The compounds of the invention were tested in the HbF activation assay on K562, as model system for screening of potential inducers of fetal hemoglobin.

T1 sequence (Q13547 whole entry): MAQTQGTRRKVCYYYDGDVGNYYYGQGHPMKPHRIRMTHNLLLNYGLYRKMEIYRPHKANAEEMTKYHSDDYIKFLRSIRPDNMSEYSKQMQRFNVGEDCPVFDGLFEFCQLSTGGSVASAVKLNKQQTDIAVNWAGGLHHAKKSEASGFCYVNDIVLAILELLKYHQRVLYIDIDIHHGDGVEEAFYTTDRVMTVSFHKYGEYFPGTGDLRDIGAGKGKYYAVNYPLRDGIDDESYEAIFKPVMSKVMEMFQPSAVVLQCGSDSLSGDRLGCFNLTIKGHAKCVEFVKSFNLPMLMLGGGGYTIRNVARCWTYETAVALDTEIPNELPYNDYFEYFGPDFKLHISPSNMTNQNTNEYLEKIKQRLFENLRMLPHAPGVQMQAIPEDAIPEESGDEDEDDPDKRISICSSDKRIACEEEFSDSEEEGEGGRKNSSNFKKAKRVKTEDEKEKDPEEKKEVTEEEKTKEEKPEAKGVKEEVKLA

IC50 [1]	IC50 [2]	EC50 [3]	SMILES
< 100 nM	100 to 1000 nM	100 to 1000 nM	CCC(=O)CCCCC[C@H](NC(=O)CCc1cnn(C)c1)c1ncc(-c2cc3ccccc3nc2OC)o1 [Compound 93, (S)-N-(1-(5-(2-methoxyquinolin-3-yl)oxazol-2-yl)-7-oxononyl)-3-(1-methyl-1H-pyrazol-4-yl)propanamide]
< 100 nM	100 to 1000 nM	100 to 1000 nM	CCC(=O)CCCCC[C@H](NC(=O)CCn1c(CC)nc2ccccc21)c1nnc(-c2cc3ccccc3nc2OC)o1 [Compound 50, (S)-3-(2-ethyl-1H-benzo[d]imidazol-1-yl)-N-(1-(5-(2-methoxyquinolin-3-yl)-1,3,4-oxadiazol-2-yl)-7-oxononyl)propanamide]
100 to 1000 nM	> 1000 nM	> 1000 nM	CCC(=O)CCCCC[C@H](NC(=O)[C@H](CC(F)(F)F)N(C)C)c1ncc(-c2cc3ccccc3nc2OC)o1 [Compound 63, (S)-2-(dimethylamino)-4,4,4-trifluoro-N-((S)-1-(5-(2-methoxyquinolin-3-yl)oxazol-2-yl)-7-oxononyl)butanamide]
< 100 nM	100 to 1000 nM	> 1000 nM	CCC(=O)CCCCC[C@H](NC(=O)CCN(C)C)c1nnc(-c2cc3ccccc3nc2OC)o1 [Compound 51, (S)-3-(dimethylamino)-N-(1-(5-(2-methoxyquinolin-3-yl)-1,3,4-oxadiazol-2-yl)-7-oxononyl)propanamide]
< 100 nM	100 to 1000 nM	> 1000 nM	CCC(=O)CCCCC[C@H](NC(=O)Cn1cc2ccccc2n1)c1ncc(-c2cc3ccccc3nc2OC)o1 [Compound 88, (S)-2-(2H-indazol-2-yl)-N-(1-(5-(2-methoxyquinolin-3-yl)oxazol-2-yl)-7-oxononyl)acetamide]
< 100 nM	< 100 nM	100 to 1000 nM	CCC(=O)CCCCC[C@H](NC(=O)C1(N(C)C)CCCC1)c1ncc(-c2cc3ccccc3nc2OC)o1 [Compound 105, (S)-1-(dimethylamino)-N-(1-(5-(2-methoxyquinolin-3-yl)oxazol-2-yl)-7-oxononyl)cyclopentanecarboxamide]
< 100 nM	100 to 1000 nM	100 to 1000 nM	CCC(=O)CCCCC[C@H](NC(=O)c1ccnn1C)c1ncc(-c2cc3ccccc3nc2OC)o1 [Compound 87, (S)-N-(1-(5-(2-methoxyquinolin-3-yl)oxazol-2-yl)-7-oxononyl)-1-methyl-1H-pyrazole-5-carboxamide]
< 100 nM	> 1000 nM	> 1000 nM	CCC(=O)CCCCC[C@H](NC(=O)C1CCN(C)CC1)c1ncc(-c2ccccc2)o1 [Compound 3, (S)-1-methyl-N-(7-oxo-1-(5-phenyloxazol-2-yl)nonyl)piperidine-4-carboxamide]
< 100 nM	100 to 1000 nM	100 to 1000 nM	CCC(=O)CCCCC[C@H](NC(=O)C1CCN(C)C1)c1ncc(-c2cc3ccccc3nc2OC)o1 (stereo partly drawn) [Compound 34, N-((S)-1-(5-(2-methoxyquinolin-3-yl)oxazol-2-yl)-7-oxononyl)-1-methylpyrrolidine-3-carboxamide]
100 to 1000 nM	> 1000 nM	> 1000 nM	CCC(=O)CCCCC[C@H](NC(=O)c1ccnc(Cl)c1)c1ncc(-c2ccccc2)o1 [Compound 14, (S)-2-chloro-N-(7-oxo-1-(5-phenyloxazol-2-yl)nonyl)isonicotinamide]
< 100 nM	100 to 1000 nM	> 1000 nM	CCC(=O)CCCCC[C@H](NC(=O)Cc1c[nH]cn1)c1ncc(-c2cc3ccccc3nc2OC)o1 [Compound 73, (S)-2-(1H-imidazol-4-yl)-N-(1-(5-(2-methoxyquinolin-3-yl)oxazol-2-yl)-7-oxononyl)acetamide]
< 100 nM	100 to 1000 nM	> 1000 nM	CCC(=O)CCCCC[C@H](NC(=O)Cn1nc(C)cc1C)c1ncc(-c2cc3ccccc3nc2OC)o1 [Compound 81, (S)-2-(3,5-dimethyl-1H-pyrazol-1-yl)-N-(1-(5-(2-methoxyquinolin-3-yl)oxazol-2-yl)-7-oxononyl)acetamide]
< 100 nM	100 to 1000 nM	> 1000 nM	CCC(=O)CCCCC[C@H](NC(=O)C1CCN1C)c1ncc(-c2cc3ccccc3nc2OC)o1 (stereo partly drawn) [Compound 85, N-((S)-1-(5-(2-methoxyquinolin-3-yl)oxazol-2-yl)-7-oxononyl)-1-methylazetidine-2-carboxamide]
< 100 nM	100 to 1000 nM	100 to 1000 nM	CCC(=O)CCCCC[C@H](NC(=O)C1CNC(=O)C1)c1ncc(-c2cc3ccccc3nc2OC)o1 (stereo partly drawn) [Compound 72, N-((S)-1-(5-(2-methoxyquinolin-3-yl)oxazol-2-yl)-7-oxononyl)-5-oxopyrrolidine-3-carboxamide]
< 100 nM	100 to 1000 nM	> 1000 nM	CCC(=O)CCCCC[C@H](NC(=O)C1CN(C(C)=O)C1)c1ncc(-c2cc3ccccc3nc2OC)o1 [Compound 55, (S)-1-acetyl-N-(1-(5-(2-methoxyquinolin-3-yl)oxazol-2-yl)-7-oxononyl)azetidine-3-carboxamide]
100 to 1000 nM	> 1000 nM	> 1000 nM	CCC(=O)CCCCC[C@H](NC(=O)Cn1c(C)nc2ccccc21)c1ncc(-c2ccccc2)o1 [Compound 18, (S)-2-(2-methyl-1H-benzo[d]imidazol-1-yl)-N-(7-oxo-1-(5-phenyloxazol-2-yl)nonyl)acetamide]
< 100 nM	> 1000 nM	> 1000 nM	CCC(=O)CCCCC[C@H](NC(=O)C1CCN(C)CC1)c1ncc(-c2cccc3c2OCCO3)o1 [Compound 5]
< 100 nM	< 100 nM	> 1000 nM	CCC(=O)CCCCC[C@H](NC(=O)c1cncs1)c1ncc(-c2cc3ccccc3nc2OC)o1 [Compound 40, (S)-N-(1-(5-(2-methoxyquinolin-3-yl)oxazol-2-yl)-7-oxononyl)thiazole-5-carboxamide]
< 100 nM	100 to 1000 nM	> 1000 nM	CCC(=O)CCCCC[C@H](NC(=O)C1CN(C)C1)c1ncc(-c2ccc(-c3ccn[nH]3)cc2)o1 [Compound 53, (S)-N-(1-(5-(4-(1H-pyrazol-5-yl)phenyl)oxazol-2-yl)-7-oxononyl)-1-methylazetidine-3-carboxamide]
100 to 1000 nM	> 1000 nM	> 1000 nM	CCC(=O)CCCCC[C@H](NC(=O)CCC1CCCN(C)C1)c1ncc(-c2ccccc2)o1 (stereo partly drawn) [Compound 25, 3-(1-methylpiperidin-3-yl)-N-((S)-7-oxo-1-(5-phenyloxazol-2-yl)nonyl)propanamide]

SMILES	IC50 [1]	IC50 [2]	EC50 [3]
CCC(=O)CCCCC[C@H](NC(=O)C(C)(C)N(C)C)c1ncc(-c2cc3ccccc3nc2OC)o1 [Compound 35, (S)-2-(dimethylamino)-N-(1-(5-(2-methoxyquinolin-3-yl)oxazol-2-yl)-7-oxononyl)-2-methylpropanamide]	< 100 nM	< 100 nM	100 to 1000 nM
